Assay results reported in patent publication US7317125B2 (Hoffman-La Roche Inc., priority 2005, dated 2008).

What follows are compounds tested against T1, DGAT1 (Homo sapiens, UniProt O75907) (assay: DGAT CHOK1 Cell Assay). Conditions: CHOK1 cells transfected with DGAT1, 14C palmitic acid, 1 hour at 37° C., triglyceride by TLC.
T1 construct: expressed in transfected cells; host or cells: CHOK1
T1 sequence (O75907 1-488): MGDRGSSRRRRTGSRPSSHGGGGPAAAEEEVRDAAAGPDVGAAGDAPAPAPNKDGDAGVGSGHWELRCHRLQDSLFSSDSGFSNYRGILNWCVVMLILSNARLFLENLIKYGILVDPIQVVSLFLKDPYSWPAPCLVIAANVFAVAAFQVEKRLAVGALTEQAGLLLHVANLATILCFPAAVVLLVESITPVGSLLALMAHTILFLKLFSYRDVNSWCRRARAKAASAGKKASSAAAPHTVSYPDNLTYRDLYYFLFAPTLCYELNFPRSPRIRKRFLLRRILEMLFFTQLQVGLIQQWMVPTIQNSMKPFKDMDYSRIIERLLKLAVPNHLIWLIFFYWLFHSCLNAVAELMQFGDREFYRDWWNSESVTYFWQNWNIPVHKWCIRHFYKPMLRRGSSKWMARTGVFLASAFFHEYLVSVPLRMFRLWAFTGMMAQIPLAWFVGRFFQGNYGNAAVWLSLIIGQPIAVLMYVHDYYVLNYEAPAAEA
Type: cell-based
Description: Materials for the assay were: petroleum ether (J. T. Baker #9268-22); diethyl ether (Aldrich #30995-8); acetic acid; 1,2-dioleoyl-3-palmitoyl-glycerol (Sigma D-1782); ^[…] Palmitic Acid (56.0 mCi/mmol PerkinElmer Life Sciences # NEC 075H); DMEM/F12 (Gibco #11330-032); fetal bovine serum; L-Glutamine; G418/ml media; DMEM High Glucose (Gibco #11995-065); BSA Fraction V Fatty Acid Free (Roche #100 377); 20×°cm silica gel 60 glass plates (EM Science Plates #5721/7).
CHOK1/DGAT cell culture medium was prepared with DMEM/F12 (Gibco #11330-032), […], and 20 ul G418/ml media. 1,2-dioleoyl-3-palmitoyl-glycerol was prepared by dissolving 10 mg into 1 ml chloroform and stored at −20° C. in 100 μl aliquots. Test compounds were prepared as 10 mM stock solutions in DMSO and store at −20° C. before use. Test dilutions were prepared by five fold serial dilutions over final concentrations.
CHOK1 cells transfected with DGAT1 were diluted in 6 well plates at 2.5×10^5 cells per well and cultured overnight. Cells were then washed twice with PBS. Test compound solutions (10 μl/2 ml media aliquots) in DMEM High Glucose with 0.01% BSA (fatty acid free) were added to cell culture plates at 800 μl per well. ^14C Palmitic acid (0.5 μCi, 5 μl) was added to each well. The plates were incubated for 1 hour at 37° C. After the incubation period, the plates were placed on ice, cells were scraped into media and transferred to microfuge tubes. 400 μl chloroform:methanol (2:1) was added to each tube. Each tube was briefly vortexed by hand, then mechanically vortexed for 10 minutes. Each tube was then centrifuged at 14,000 RPM for 10 minutes at 4° C. and the bottom layer removed and transferred to a new microfuge tube.
Extracted samples were spotted onto TLC plates at 20 μl per lane. The TLC plates were eluted with a solvent mixture of petroleum ether, diethyl ether and acetic acid (80:20:1) and air dried. Trigylceride (TG) spots were visualized by placing in an iodine chamber for several minutes. 1 μl of ^14C palmitic acid (diluted 1:10 in 100% EtOH) was spotted on the TG standard lane (at TG level) as a reference. The TLC plates were wrapped in plastic wrap and placed in a phosphorimager cassette for scanning.
The EC50 values for those compounds tested in this Example were generated using an Excel template, the results of which are shown in Table II: […]

Question: CC(C)N(NC(=O)C1CCOCC1)C(=O)COc1ccc(F)cc1-c1ccccc1OC(F)(F)F [Example 34, tetrahydro-pyran-4-carboxylic-acid-N′-[2-(5-fluoro-2′-trifluoromethoxy-biphenyl-2-yloxy)-acetyl]-N′-isopropyl-hydrazide] was tested. Which EC50 did it give?
Answer: 1.24 µM

Question: CC(C)N(NC(=O)c1ccoc1)C(=O)COc1ccc(F)cc1-c1ccccc1OC(F)(F)F [Example 37, furan-3-carboxylic acid N′-[2-(5-fluoro-2′-trifluoromethoxy-biphenyl-2-yloxy)-acetyl]-N′-isopropyl-hydrazide] was tested. Which EC50 did it give?
Answer: 11.1 µM

Question: Which EC50 does the source give for CC(C)N(NC(=O)C1CCCCC1)C(=O)COc1ccc(F)cc1-c1ccccc1OC(F)(F)F [Example 38, cyclohexanecarboxylic acid N′-[2-(5-fluoro-2′-trifluoromethoxy-biphenyl-2-yloxy)-acetyl]-N′-isopropyl-hydrazide] here?
Answer: 2.81 µM

Question: How did the EC50 turn out when COCCOc1ccc(C(=O)NN(C(=O)COc2ccc(F)cc2-c2ccccc2OC(F)(F)F)C(C)C)cc1 [Example 39, 4-(2-methoxy-ethoxy)-benzoic acid N′-[2-(5-fluoro-2′-trifluoromethoxy-biphenyl-2-yloxy)-acetyl]-N′-isopropyl hydrazide] was run?
Answer: 3.05 µM

Question: For CC(C)N(NC(=O)c1cccs1)C(=O)COc1ccc(F)cc1-c1ccccc1OC(F)(F)F [Example 40, thiophene-2-carboxylic acid N′-[2-(5-fluoro-2′-trifluoromethoxy-biphenyl-2-yloxy)-acetyl]-N′-isopropyl hydrazide], which EC50 is on record?
Answer: 3.48 µM

Question: How did the EC50 turn out when CC(C)N(NC(=O)C1CCSCC1)C(=O)COc1ccc(F)cc1-c1ccccc1OC(F)(F)F [Example 41, tetrahydro-thiopyran-4-carboxylic acid N′-[2-(5-fluoro-2′-trifluoromethoxy-biphenyl-2-yloxy)-acetyl]-N′-isopropyl hydrazide] was run?
Answer: 0.774 µM

Question: Which EC50 does the source give for CC(C)N(NC(=O)c1ccsc1)C(=O)COc1ccc(F)cc1-c1ccccc1OC(F)(F)F [Example 42, thiophene-3-carboxylic acid N′-[2-(5-fluoro-2′-trifluoromethoxy-biphenyl-2-yloxy)-acetyl]-N′-isopropyl hydrazide] here?
Answer: 3.29 µM

Question: Which EC50 does the source give for CC(C)N(NC(=O)c1ccccc1)C(=O)CSc1ccccc1-c1cccc(F)c1 [Example 48, benzoic acid N′-[2-(3′-fluoro-biphenyl-2-ylsulfanyl)-acetyl]-N′-isopropyl-hydrazide] here?
Answer: 3.4 µM

Question: Which EC50 does the source give for Cc1cccc(-c2ccccc2SCC(=O)N(NC(=O)c2ccccc2)C(C)C)c1C [Example 49, benzoic acid N′-[2-(2′,3′-dimethyl-biphenyl-2-ylsulfanyl)-acetyl]-N′-isopropyl-hydrazide] here?
Answer: 5.67 µM

Question: With COc1cccc(-c2ccccc2SCC(=O)N(NC(=O)c2ccccc2)C(C)C)c1 [Example 50, benzoic acid N′-[2-(3′-methoxy-biphenyl-2-ylsulfanyl)-acetyl]-N′-isopropyl-hydrazide] as the compound, how does the EC50 read?
Answer: 1.29 µM

Question: How did the EC50 turn out when CC(C)N(NC(=O)c1ccccc1)C(=O)CSc1ccccc1-c1ccc(F)cc1 [Example 51, benzoic acid N′-[2-(4′-fluoro-biphenyl-2-ylsulfanyl)-acetyl]-N′-isopropyl-hydrazide] was run?
Answer: 4.9 µM

Question: With CC(C)N(NC(=O)c1ccccc1)C(=O)CSc1ccccc1-c1cccc(C(F)(F)F)c1 [Example 52, benzoic acid N′-[2-(3′-trifluoromethyl-biphenyl-2-ylsulfanyl)-acetyl]-N′-isopropyl-hydrazide] as the compound, how does the EC50 read?
Answer: 1.6 µM

Question: How did the EC50 turn out when COc1ccccc1-c1ccccc1SCC(=O)N(NC(=O)c1ccccc1)C(C)C [Example 53, benzoic acid N′-[2-(2′-methoxy-biphenyl-2-ylsulfanyl)-acetyl]-N′-isopropyl-hydrazide] was run?
Answer: 6.7 µM

Question: Which EC50 does the source give for CC(C)N(NC(=O)c1ccccc1)C(=O)CSc1ccccc1-c1ccccc1F [Example 54, benzoic acid N′-[2-(2′-fluoro-biphenyl-2-ylsulfanyl)-acetyl]-N′-isopropyl-hydrazide] here?
Answer: 1.43 µM

Question: COc1ccc(-c2ccccc2SCC(=O)N(NC(=O)c2ccccc2)C(C)C)cc1 [Example 55, benzoic acid N′-[2-(4′-methoxy-biphenyl-2-ylsulfanyl)-acetyl]-N′-isopropyl-hydrazide] was tested. Which EC50 did it give?
Answer: 2.3 µM

Question: CC(C)N(NC(=O)c1ccccc1)C(=O)CSc1ccccc1-c1ccccc1 [Example 56, benzoic acid N′-[2-(biphenyl-2-ylsulfanyl)-acetyl]-N′-isopropyl-hydrazide] was tested. Which EC50 did it give?
Answer: 37.4 µM

Question: How did the EC50 turn out when CC(C)CNc1ccc(C(=O)NN(C(=O)COc2ccc(F)cc2-c2ccccc2OC(F)(F)F)C(C)C)cc1 [Example 57, 4-(isobutylamino)-benzoic acid N′-[2-(5-fluoro-2′-trifluoromethoxy-biphenyl-2-yloxy)-acetyl]-N′-isopropyl hydrazide] was run?
Answer: 0.348 µM
